Data on three compounds can be found in US20230143604A1, “QW DOSING OF GIP RECEPTOR AGONIST PEPTIDE COMPOUNDS AND USES THEREOF” (TAKEDA PHARMACEUTICAL COMPANY LIMITED, priority 2020, published 2023).

The structures appear in SMILES notation. Starred links: 1 amine or outer side, 2 acyl side, 3 side chain; linkers in the order of their positions; H or OH if unused. Non-standard residues stand in square brackets, D forms with d. Residues, ends and D or L forms follow the SMILES beside them. Groups on a side chain read outwards from the residue. *: point of attachment. C18 diacid = O=C(O)CCCCCCCCCCCCCCCCC(=O)*; C17 diacid = O=C(O)CCCCCCCCCCCCCCCC(=O)*; γGlu = O=C(O)[C@H](CCC(=O)[*:2])N[*:1]; NMeY = CN[C@@H](Cc1ccc(O)cc1)C(=O)O; AEEA = NCCOCCOCC(=O)O; Aib = CC(C)(N)C(=O)O

Series [1] is described as follows: Pharmacokinetics in dog after IV and SC dosing. The conditions noted are these: in vivo. As to the method: Pharmacokinetic (PK) were conducted in dog in order to determine the half-life after IV and SC dosing. The peptide was dissolved in 10% DMSO/0.09% Polysorbate/PBS pH 7.4 to a concentration of 3 nmol/mL and the animal were dose with a volume of 1 mL/kg SC or IV. Blood sample were collected at 0, 0.033, 0.083, 0.25, 0.5, 1, 2, 4, 6, 8, 12, 24, 48, 72, 96, 120, 168, 336 hours for IV dosing and 0.25, 0.5, 1, 2, 4, 6, 8, 12, 24, 48, 72, 96, 120, 168, 336 for SC dosing, EDTA-K2 was used as anticoagulant. The plasma concentration of the peptide was measured using LCMS. Allometric scaling of lipidated peptide pharmacokinetics including T1/2 and MRT is known in the art for rodent to dog and mini pig and to humans. […] See for example, Discovery and Development of Liraglutide and Semaglutide. Knudsen, L. B.; Lau, J. Frontiers in Endocrinology, 2019, vol 10, Article 155.

Series [2] is described as follows: Serum half-life and percentage remaining at 48 hours. Type of series: in vitro ADME. The note with it: human plasma, 500 nM peptide, 37° C.; for half-life at 500 nM / remaining at 48 h, 500 nM: both sexes, pH 7.4; for half-life at 500 nM: read-out: Serum t1/2 (converted); for remaining at 48 h, 500 nM: plasma (sodium heparin). Here is the method: Human plasma (mixed gender: sodium heparin is used as anti-coagulant; pre-adjusted to pH 7.4—NB alternative species may be used) is spiked with each test peptide (500 nM) and incubated·cn=3) at 37° C. for 48 hours in a 5% CO2 environment. Aliquots are taken at 0. 1, 2, 4, 7, 24 and […] and pH adjusted to pH 3 with 20% formic acid prior to analysis. Appropriate positive control compounds will be incubated in parallel, in addition to a no plasma control, sampled at 0 and 8 hours. All samples will be treated with ice-cold acetonitrile/methanol (4:1 (v/v)) containing internal standard prior to centrifugation at 2000 g and 4° C. for 10 minutes and subjected to LC-MS/MS analysis.
The samples are analyzed by LC-MS/MS using a 6500 (or equivalent) triple quadrupole mass spectrometer (AB Sciex) coupled to an appropriate Liquid Chromatography (LC) system. Protein binding and stability values are determined via peak area ratios using multiple reaction monitoring (MRM) parameters following compound optimisation. Multiple reaction monitoring (MRM) is a highly sensitive method of targeted mass spectrometry (MS) that can be used to selectively detect and quantify peptides based on the screening of specified precursor peptide-to-fragment ion transitions.

The nature of series [3]: Human plasma protein binding (PPB). The format is in vitro ADME. Summed up:
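Peptides spiked at 1000 nmol/L into pooled human K2-EDTA plasma adjusted to pH 7.4, incubated 30 min at 37 °C, then ultracentrifuged at ~450,000 g, 4 °C for 3 h. Fu derived from LC-MS/MS (MRM) peak area ratios, supernatant versus plasma.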

The nature of series [4]: Dog plasma protein binding (PPB). The format is in vitro ADME. The conditions noted are these: pH 7.4; fraction unbound; dog serum; read-out: Dog PPB (FUplasma). Summed up: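 Dog serum replaced human serum, with the protocol and analysis otherwise the same as for human plasma protein binding. Values are reported as fraction unbound (Fu,plasma) expressed as a percentage.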

Series [5] is described as follows: Solubility in phosphate buffer pH 7.4. Summed up: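 3 mg of peptide treated with 100 μL portions of 200 mM phosphate buffer pH 7.4, sonicating/vortexing up to 1 min, with further buffer added until fully dissolved. Solubility then quantified by HPLC.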
Setting [6] is: pH 7.4, aqueous buffer, pH 7.4 Phosphate Buffer - Solubility, 200 mM Phosphate buffer pH 7.4.
The mark [7] stands for this setting: pH 7.4, solubility in phosphate buffer at pH 7.4, 200 mM phosphate buffer pH 7.4.

Regarding `CC[C@H](C)[C@H](NC(=O)[C@H](Cc1ccccc1)NC(=O)[C@@H](NC(=O)CNC(=O)[C@H](CCC(=O)O)NC(=O)C(C)(C)NC(=O)[C@H](Cc1ccc(O)cc1)NC)[C@@H](C)O)C(=O)N[C@@H](CO)C(=O)N[C@@H](CC(=O)O)C(=O)N[C@@H](Cc1ccc(O)cc1)C(=O)N[C@@H](CO)C(=O)N[C@H](C(=O)NC(C)(C)C(=O)N[C@@H](CC(C)C)C(=O)N[C@@H](CC(=O)O)C(=O)N[C@@H](CCCNC(=N)N)C(=O)N[C@@H](CCCCNC(=O)COCCOCCNC(=O)COCCOCCNC(=O)CC[C@H](NC(=O)CC[C@H](NC(=O)CCCCCCCCCCCCCCCC(=O)O)C(=O)O)C(=O)O)C(=O)N[C@@H](C)C(=O)N[C@@H](CCC(N)=O)C(=O)NC(C)(C)C(=O)N[C@@H](CC(N)=O)C(=O)N[C@@H](Cc1ccccc1)C(=O)N[C@H](C(=O)N[C@@H](CC(N)=O)C(=O)N[C@@H](Cc1c[nH]c2ccccc12)C(=O)N[C@@H](CC(C)C)C(=O)N[C@@H](CC(C)C)C(=O)N[C@@H](C)C(=O)N[C@@H](CCC(N)=O)C(=O)N[C@@H](CCCNC(=N)N)C(=O)N1CCC[C@H]1C(=O)N[C@@H](CO)C(=O)N[C@@H](CO)C(=O)NCC(=O)N[C@@H](C)C(=O)N1CCC[C@H]1C(=O)N1CCC[C@H]1C(=O)N1CCC[C@H]1C(=O)N[C@@H](CO)C(N)=O)C(C)C)[C@@H](C)CC` [Compound 15] (H-[NMeY][Aib]EGTFISDYSI[Aib]LDRK([AEEA-AEEA-γGlu-γGlu-C17 diacid])AQ[Aib]NFVNWLLAQRPSSGAPPPS-NH2), the half-life in series [1] (IV 3 nmol/kg, read-out: IV T½ (converted)) was 57 h. For the same compound, in series [1] (SC 3 nmol/kg, read-out: SC MRT 0-last), the MRT last (in general, a mean duration of stay, worked out from the concentration-time curve) was determined as 64 h. Moreover, in series [2], the half-life at 500 nM is greater than 48 h. The “% Remaining at 48 hr” value in series [2] (48 hr) is 131.1%. Further, the fraction unbound at 30 min, 1000 nmol/L came to 0.0017 in series [3] (both sexes, pH 7.4, fraction unbound, human plasma, 1000 nmol/L peptide, ultracentrifugation, read-out: Human PPB (FUplasma)) and 0.0021 in series [4]. For the same compound, the “free unbound peptide in human plasma (in words)” value in series [3] (judged for once per week (QW) dosing) is given as “optimum free unbound peptide”. Also, the values for the solubility in series [5] (setting [6]) and in series [5] (setting [7]) were no less than 30 mg/mL and no less than 15 mg/mL, respectively.

As to `CC[C@H](C)[C@H](NC(=O)[C@H](CO)NC(=O)[C@H](Cc1ccc(O)cc1)NC(=O)[C@H](CC(=O)O)NC(=O)[C@H](CO)NC(=O)[C@@H](NC(=O)[C@H](Cc1ccccc1)NC(=O)[C@@H](NC(=O)CNC(=O)[C@H](CCC(=O)O)NC(=O)C(C)(C)NC(=O)[C@H](Cc1ccc(O)cc1)NC)[C@@H](C)O)[C@@H](C)CC)C(=O)N[C@@H](C)C(=O)N[C@@H](CC(C)C)C(=O)N[C@@H](CC(=O)O)C(=O)N[C@@H](CCCNC(=N)N)C(=O)NC(C)(C)C(=O)N[C@@H](Cc1c[nH]cn1)C(=O)N[C@@H](CCC(N)=O)C(=O)NC(C)(C)C(=O)N[C@@H](CC(N)=O)C(=O)N[C@@H](Cc1ccccc1)C(=O)N[C@H](C(=O)N[C@@H](CC(N)=O)C(=O)N[C@@H](Cc1c[nH]c2ccccc12)C(=O)N[C@@H](CC(C)C)C(=O)N[C@@H](CC(C)C)C(=O)N[C@@H](C)C(=O)N[C@@H](CCC(N)=O)C(=O)N[C@@H](CCCCNC(=O)COCCOCCNC(=O)COCCOCCNC(=O)CC[C@H](NC(=O)CCCCCCCCCCCCCCCCC(=O)O)C(=O)O)C(=O)N1CCC[C@H]1C(=O)N[C@@H](CO)C(=O)N[C@@H](CO)C(=O)NCC(=O)N[C@@H](C)C(=O)N1CCC[C@H]1C(=O)N1CCC[C@H]1C(=O)N1CCC[C@H]1C(=O)N[C@@H](CO)C(N)=O)C(C)C` [Compound 1] (H-[NMeY][Aib]EGTFISDYSIALDR[Aib]HQ[Aib]NFVNWLLAQK([AEEA-AEEA-γGlu-C18 diacid])PSSGAPPPS-NH2), the half-life at 500 nM in series [2] is greater than 48 h. Further, the fraction remaining – broadly, what is left of the initial amount, in per cent – at 48 h, 500 nM in series [2] (48 hr) was 100%. In addition, the solubility (in general, how much of the substance goes into solution per volume) was no less than 30 mg/mL in series [5] (setting [6]) and no less than 15 mg/mL in series [5] (setting [7]).

On to `CC[C@H](C)[C@H](NC(=O)[C@H](CO)NC(=O)[C@H](Cc1ccc(O)cc1)NC(=O)[C@H](CC(=O)O)NC(=O)[C@H](CO)NC(=O)[C@@H](NC(=O)[C@H](Cc1ccccc1)NC(=O)[C@@H](NC(=O)CNC(=O)[C@H](CCC(=O)O)NC(=O)C(C)(C)NC(=O)[C@H](Cc1ccc(O)cc1)NC)[C@@H](C)O)[C@@H](C)CC)C(=O)N[C@@H](C)C(=O)N[C@@H](CC(C)C)C(=O)N[C@@H](CC(=O)O)C(=O)N[C@@H](CCCNC(=N)N)C(=O)N[C@@H](CCCCNC(=O)COCCOCCNC(=O)COCCOCCNC(=O)CC[C@H](NC(=O)CCCCCCCCCCCCCCCCC(=O)O)C(=O)O)C(=O)N[C@@H](Cc1c[nH]cn1)C(=O)N[C@@H](CCC(N)=O)C(=O)N[C@@H](CCC(N)=O)C(=O)N[C@@H](CC(N)=O)C(=O)N[C@@H](Cc1ccccc1)C(=O)N[C@H](C(=O)N[C@@H](CC(N)=O)C(=O)N[C@@H](Cc1c[nH]c2ccccc12)C(=O)N[C@@H](CC(C)C)C(=O)N[C@@H](CC(C)C)C(=O)N[C@@H](C)C(=O)N[C@@H](CCC(N)=O)C(=O)N[C@@H](CCCNC(=N)N)C(=O)N1CCC[C@H]1C(=O)N[C@@H](CO)C(=O)N[C@@H](CO)C(=O)NCC(=O)N[C@@H](C)C(=O)N1CCC[C@H]1C(=O)N1CCC[C@H]1C(=O)N1CCC[C@H]1C(=O)N[C@@H](CO)C(N)=O)C(C)C` [Compound 4] (H-[NMeY][Aib]EGTFISDYSIALDRK([AEEA-AEEA-γGlu-C18 diacid])HQQNFVNWLLAQRPSSGAPPPS-NH2), for which the half-life at 500 nM in series [2] is 17.1 h. Moreover, the amount remaining at 48 h, 500 nM in series [2] (48 hr) is 15%. Also, the solubility in series [5] (setting [6]) is no less than 30 mg/mL; in series [5] (setting [7]) it was no less than 15 mg/mL.
